From US20060141022A1, “Soft capsule preparation” (priority 2002, published 2006)

Legend:
[1] = Stability test of NIK-333 in sealed bottle (peroxide value); assay type: physicochemical; conditions: 25° C., sealed bottle in aluminium bag
Description: NIK-333 was filled in a sealed bottle and the bottle was put into an aluminium bag. This sample was stored at 25° C., and after 0, 1, and 3 months, the peroxide values were measured.

hepatoma = conditions: one-year oral administration, patients after therapeutic treatment of hepatoma; cited from earlier work

CC(C)=CCC/C(C)=C/CC/C(C)=C/C=C/C(C)=C/C(=O)O [NIK-333, (2E,4E,6E,10E )-3,7,11,15-Tetramethyl-2,4,6,10,14-hexadecapentaenoic acid]
Peroxide value ([1]; storage period 0 month): 0.4 meq/kg
Peroxide value ([1]; storage period 1 month): 6.2 meq/kg
Peroxide value ([1]; storage period 3 months): 14.4 meq/kg
recurrence of hepatoma (hepatoma): suppress recurrence of hepatoma
safety (hepatoma): high safety
survival rate of the patients (hepatoma): increased survival rate of the patients
